# Results as given in ChEMBL document CHEMBL4321815, “Discovery of an Extremely Potent Thiazine-Based β-Secretase Inhibitor with Reduced Cardiovascular and Liver Toxicity at a Low Projected Human Dose” (J Med Chem, 2019).
# What was measured:
# Canis familiaris = assay: In vivo inhibition of BACE1 in po dosed Beagle dog assessed as plasma level causing 50% reduction in amyloidbeta42 level in CSF administered as single dose measured after 4 to 49 hrs; type: functional, organism-based; conditions: Canis lupus familiaris
# Homo sapiens = assay: In vivo inhibition of BACE1 in human assessed as reduction in amyloidbeta level at 40 mg administered once daily relative to control; type: functional
smiles,measurement,setting,value
CN1C(N)=N[C@](C)(c2cc(NC(=O)c3ccc(F)cn3)ccc2F)CS1(=O)=O [VERUBECESTAT],EC50,Canis familiaris,34 nM
same,inhibition (INH),Homo sapiens,80%
